According to article PMC7606179 (Acta Pharmaceutica Sinica. B, 2020):

tested on: NA immobilized magnetic beads (NA from C. perfringens); type: binding, Clostridium perfringens

Compound	Behaviour in NA-MB ligand fishing of the artificial mixture
O=c1cc(-c2ccc(O)c(O)c2)oc2cc(O)cc(O)c12 [luteolin]	specific inhibitors of NA
COc1ccc2c3c1O[C@H]1C[C@@H](O)C=C[C@@]31CCN(C)C2 [galantamine]	non-inhibitor of NA
COc1cc(-c2oc3cc(O)cc(O)c3c(=O)c2O)ccc1O [isorhamnetin]	started to release from the enzyme when NA-MB was extracted using 50% organic solvent
COc1cc2c(cc1O)CC[n+]1cc3c(OC)c(OC)ccc3cc1-2 [jatrorrhizine]	gradually washed out from M-S2 to M-S6
O=c1c(O)c(-c2ccc(O)c(O)c2)oc2cc(O)cc(O)c12 [Quercetin]	specific inhibitors of NA
O=c1cc(-c2ccc(O)c(O)c2)oc2cc(O[C@@H]3O[C@H](CO)[C@@H](O)[C@H](O)[C@H]3O)cc(O)c12 [Galuteolin, galuteolin]	started to release from the enzyme when NA-MB was extracted using 50% organic solvent
